Read-outs that look alike come from different tables or passages of the source.
How the values were obtained:
human D2R/β-arrestin [1] = target: T1, human D2R/β-arrestin (Homo sapiens (Human), UniProt P14416); assay: cell-based; conditions: β-arrestin Antagonist, CHO-K1 cell line expressing human D2R/β-arrestin; quinpirole used as agonist
human D2R/β-arrestin [2] = target: T1, human D2R/β-arrestin; assay: cell-based; conditions: cAMP Antagonist
[3] = Microsomal stability, mouse
human D2R/β-arrestin [4] = target: T1, human D2R/β-arrestin; assay: Gi/cAMP agonist assay (Lance Ultra cAMP, Forskolin); format: cell-based; conditions: CHO-K1 cell line expressing human D2R/β-arrestin
Procedure, shortened: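 Read-out was Lance Ultra competitive TR-FRET (Eu-cAMP tracer plus ULight-anti-cAMP) following forskolin-induced cAMP production. Before forskolin stimulation, compounds were pin-transferred onto the seeded cells for 10 min at 37 °C.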

human D2R/β-arrestin [5] = target: T1, human D2R/β-arrestin; assay: β-Arrestin agonist assay (PathHunter); format: cell-based; conditions: CHO-K1 cell line expressing human D2R/β-arrestin
Procedure, shortened: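 Readout follows addition of Buffer:Emerald II:Galactor-Star reagent (19:5:1) to agonist-treated plates, measured as luminescence or fluorescence.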

human D2R/β-arrestin [6] = target: T1, human D2R/β-arrestin; conditions: read-out: β-arrestin Antagonist
[7] = CHO-K1 cell line expressing human D2R/β-arrestin, quinpirole used as agonist

T1 sequence (P14416 whole entry): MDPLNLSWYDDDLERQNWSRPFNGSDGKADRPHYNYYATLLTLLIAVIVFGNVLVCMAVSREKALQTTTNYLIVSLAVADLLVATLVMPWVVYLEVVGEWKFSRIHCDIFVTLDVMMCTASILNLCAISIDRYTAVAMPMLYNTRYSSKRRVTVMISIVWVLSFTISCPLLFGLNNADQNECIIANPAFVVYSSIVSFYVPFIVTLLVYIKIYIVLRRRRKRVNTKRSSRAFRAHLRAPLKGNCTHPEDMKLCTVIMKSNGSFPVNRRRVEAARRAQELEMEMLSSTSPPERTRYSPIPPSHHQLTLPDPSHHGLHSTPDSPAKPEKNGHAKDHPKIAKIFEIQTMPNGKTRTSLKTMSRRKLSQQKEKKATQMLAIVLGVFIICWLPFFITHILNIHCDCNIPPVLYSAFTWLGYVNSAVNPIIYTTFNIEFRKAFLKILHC

Row | SMILES | IC50 (human D2R/β-arrestin [1]) | IC50 (human D2R/β-arrestin [2]; [7]) | Microsomal Stability: % remaining after 60 minutes [3] | EC50 (human D2R/β-arrestin [4]) | EC50 (human D2R/β-arrestin [5]) | IC50 (human D2R/β-arrestin [6]; [7]) | IC50 (human D2R/β-arrestin [6]) | IC50 (human D2R/β-arrestin [2])
1 | CC(C)N(CC1CCN(CCOc2ccc(F)cc2)CC1)C(c1ccc(Cl)cc1)c1ccccn1 (stereo not drawn) [Compound 135, N-((4-chlorophenyl)(pyridin-2-yl)methyl)-N-((1-(2-(4-fluorophenoxy)ethyl)piperidin-4-yl)methyl)propan-2-amine] | 1000 to 10000 nM | 100 to 1000 nM | m2% | > 30000 nM | > 30000 nM | – | – | –
2 | Clc1ccc(C(OCC2CCN(CCOc3ccccc3)CC2)c2ccccn2)cc1 (stereo not drawn) [Compound 99, 2-((4-chlorophenyl)((1-(2-phenoxyethyl)piperidin-4-yl)methoxy)methyl)pyridine] | 1000 to 10000 nM | > 30000 nM | m7% | 100 to 1000 nM | > 30000 nM | – | – | –
3 | CN(C(=O)C1CCN(CCOc2ccccc2)CC1)C(c1ccc(Cl)cc1)c1ccccn1 (stereo not drawn) [Compound 51, N((4-chlorophenyl)(pyridin-2-yl)methyl)-N-methyl-1-(2-phenoxyethyl) piperidine-4-carboxamide] | 1000 to 10000 nM | > 30000 nM | m0% | 100 to 1000 nM | > 30000 nM | – | – | –
4 | COc1cccc(C(NC(=O)C2CCN(CCOc3ccccc3)CC2)c2ccccc2)c1 (stereo not drawn) [Compound 46] | – | – | – | – | > 30000 nM | 1000 to 10000 nM | – | –
5 | Clc1ccc(C(c2ccccn2)N2CC3(CCN(CCOc4ccccc4)CC3)C2)cc1 (stereo not drawn) [Compound 104, 2-((4-chlorophenyl)(pyridin-2-yl)methyl)-7-(2-phenoxyethyl)-2,7-diazaspiro[3.5]nonane] | 10000 to 30000 nM | > 30000 nM | m45% | 1000 to 10000 nM | > 30000 nM | – | – | –
6 | O=C(NC(c1cccc(OC(F)(F)F)c1)c1ccccn1)C1CCN(CCOc2ccccc2F)CC1 (stereo not drawn) [Compound 93, 1-(2-(2-fluorophenoxy)ethyl)-N-(pyridin-2-yl(3-(trifluoromethoxy)phenyl)methyl)piperidine-4-carboxamide] | 100 to 1000 nM | > 30000 nM | m12% | < 100 nM | > 30000 nM | – | – | –
7 | CC(C)N(CC1CCN(CCOc2ccccc2)CC1)C(c1ccc(Cl)cc1)c1ccccn1 (single isomer, unassigned) [Compound 103b, N-((4-chlorophenyl)(pyridin-2-yl)methyl)-N-((1-(2-phenoxyethyl)piperidin-4-yl)methyl)propan-2-amine] | – | – | – | < 100 nM | 100 to 1000 nM | – | 100 to 1000 nM | > 30000 nM
8 | O=C(NC(c1ccc(Cl)cc1)c1ccccn1)C1CCN(CCOc2cccc(Cl)c2)CC1 (single isomer, unassigned) [Compound 1b, 1-(2-(3-chlorophenoxy)ethyl)-N-((4-chlorophenyl)(pyridin-2-yl)methyl)piperidine-4-carboxamide] | – | > 30000 nM | – | < 100 nM | 1000 to 10000 nM | 1000 to 10000 nM | – | –
9 | CN(CC1CCN(CCOc2ccc(C(F)(F)F)cc2)CC1)C(c1ccc(Cl)cc1)c1ccccn1 (stereo not drawn) [Compound 137, 1-(4-chlorophenyl)-N-methyl-1-(pyridin-2-yl)-N-((1-(2-(4-(trifluoromethyl)phenoxy)ethyl)piperidin-4-yl)methyl)methanamine] | 1000 to 10000 nM | 1000 to 10000 nM | m1% | > 30000 nM | > 30000 nM | – | – | –
10 | O=C(NC(c1ccc(Cl)cc1)c1ccccc1F)C1CCN(CCOc2ccccc2F)CC1 (stereo not drawn) [Compound 96, N-((4-chlorophenyl)(2-fluorophenyl)methyl)-1-(2-(2-fluorophenoxy)ethyl) piperidine-4-carboxamide] | 100 to 1000 nM | 100 to 1000 nM | m26% | 100 to 1000 nM | > 30000 nM | – | – | –
11 | O=C(NC(c1ccc(Cl)cc1)c1ccccn1)C1CCN(CCOc2cccc(Cl)c2)CC1 (stereo not drawn) [Compound 1, 1-(2-(3-chlorophenoxy)ethyl)-N-((4-chlorophenyl)(pyridin-2-yl)methyl)piperidine-4-carboxamide] | 100 to 1000 nM | > 30000 nM | – | < 100 nM | > 30000 nM | – | – | –
12 | O=C(NC(c1ccccn1)c1ccccc1C(F)(F)F)C1CCN(CCOc2ccccc2)CC1 (stereo not drawn) [Compound 33, 1-(2-phenoxyethyl)-N-(pyridin-2-yl(2-(trifluoromethyl)phenyl)methyl) piperidine-4-carboxamide] | 10000 to 30000 nM | > 30000 nM | – | 1000 to 10000 nM | > 30000 nM | – | – | –
13 | COc1ccccc1C(NC(=O)C1CCN(CCOc2ccccc2)CC1)c1ccccn1 (stereo not drawn) [Compound 36, N((2-methoxyphenyl)(pyridin-2-yl)methyl)-1-(2-phenoxyethyl) piperidine-4-carboxamide] | 10000 to 30000 nM | > 30000 nM | – | > 30000 nM | > 30000 nM | – | – | –
14 | O=C(NC(c1ccc(F)cc1)c1ccccc1F)C1CCN(CCOc2ccccc2)CC1 (stereo not drawn) [Compound 49, N-((2-fluorophenyl)(4-fluorophenyl)methyl)-1-(2-phenoxyethyl)piperidine-4-carboxamide] | 100 to 1000 nM | 1000 to 10000 nM | – | 1000 to 10000 nM | > 30000 nM | – | – | –
15 | Fc1ccccc1C(NCC1CCN(CCOc2ccccc2)CC1)c1ccc(Cl)cc1 (stereo not drawn) [Compound 81, 1-(4-chlorophenyl)-1-(2-fluorophenyl)-N-((1-(2-phenoxyethyl)piperidin-4-yl)methyl)methanamine] | 100 to 1000 nM | 100 to 1000 nM | – | > 30000 nM | > 30000 nM | – | – | –

Further lines, with some results ahead:

Row | IC50 (human D2R/β-arrestin [1]) | IC50 (human D2R/β-arrestin [2]; [7]) | Microsomal Stability: % remaining after 60 minutes [3] | EC50 (human D2R/β-arrestin [4]) | EC50 (human D2R/β-arrestin [5]) | IC50 (human D2R/β-arrestin [6]; [7]) | SMILES | IC50 (human D2R/β-arrestin [6]) | IC50 (human D2R/β-arrestin [2])
16 | 100 to 1000 nM | 100 to 1000 nM | m1% | > 30000 nM | > 30000 nM | – | O=C(NC(c1ccc(Cl)cc1)c1ccncc1F)C1CCN(CCOc2ccccc2F)CC1 (single isomer, unassigned) [Compound 91b, N-((4-chlorophenyl)(3-fluoropyridin-4-yl)methyl)-1-(2-(2-fluorophenoxy)ethyl)piperidine-4-carboxamide] | – | –
17 | – | < 100 nM | – | < 100 nM | > 30000 nM | 100 to 1000 nM | CN(CC1CCN(CCOc2ccccc2F)CC1)C(c1ccc2c(c1)OCO2)c1ccccn1 (single isomer, unassigned) [Compound 138b, 1-(benzo[d][1,3]dioxol-5-yl)-N-((1-(2-(2-fluorophenoxy)ethyl)piperidin-4-yl)methyl)-N-methyl-1-(pyridin-2-yl)methanamine] | – | –
18 | – | > 30000 nM | – | < 100 nM | 100 to 1000 nM | 1000 to 10000 nM | O=C(NC(c1ccc2c(c1)OC(F)(F)O2)c1ccccn1)C1CCN(CCOc2ccc(F)cc2F)CC1 (single isomer, unassigned) [Compound 130b, N-((2,2-difluorobenzo[d][1,3]dioxol-5-yl)(pyridin-2-yl)methyl)-1-(2-(2,4-difluorophenoxy)ethyl)piperidine-4-carboxamide] | – | –
19 | – | – | – | – | > 30000 nM | 100 to 1000 nM | CC1(CNC(c2ccc(F)cc2)c2ccccn2)CCN(CCOc2ccccc2C(F)(F)F)CC1 (single isomer, unassigned) [Compound 101b, 1-(4-fluorophenyl)-N-((4-methyl-1-(2-(2-(trifluoromethyl)phenoxy)ethyl)piperidin-4-yl)methyl)-1-(pyridin-2-yl)methanamine] | – | –
20 | – | 1000 to 10000 nM | – | 1000 to 10000 nM | > 30000 nM | 1000 to 10000 nM | COc1cccc(C(c2ccccn2)N(C)CC2CCN(CCOc3ccccc3)CC2)c1 (single isomer, unassigned) [Compound 76b, 1-(3-methoxyphenyl)-N-methyl-N-((1-(2-phenoxyethyl)piperidin-4-yl)methyl)-1-(pyridin-2-yl)methanamine] | – | –
21 | 100 to 1000 nM | > 30000 nM | m1% | < 100 nM | 100 to 1000 nM | – | Clc1ccc(C(c2ccccn2)N2CCC3(CCN(CCOc4ccccc4)CC3)C2)cc1 (single isomer, unassigned) [Compound 105a, 2-((4-chlorophenyl)(pyridin-2-yl)methyl)-8-(2-phenoxyethyl)-2,8-diazaspiro[4.5]decane] | – | –
22 | 100 to 1000 nM | 100 to 1000 nM | m3% | 100 to 1000 nM | > 30000 nM | – | CC(C1CCN(CCOc2ccccc2)CC1)N(C)C(c1ccc(Cl)cc1)c1ccccn1 (single isomer, unassigned) [Compound 97b, N-((4-chlorophenyl)(pyridin-2-yl)methyl)-N-methyl-1-(1-(2-phenoxyethyl)piperidin-4-yl)ethan-1-amine] | – | –
23 | 1000 to 10000 nM | > 30000 nM | – | 100 to 1000 nM | > 30000 nM | – | O=C(NC(c1ccc(Cl)cc1)c1ccccn1)C1CCN(CCOc2ccc(F)cc2F)CC1 (single isomer, unassigned) [Compound 115a, N-((4-chlorophenyl)(pyridin-2-yl)methyl)-1-(2-(2,4-difluorophenoxy)ethyl)piperidine-4-carboxamide] | – | –
24 | 100 to 1000 nM | 100 to 1000 nM | – | > 30000 nM | > 30000 nM | – | CC1(CNC(c2ccc(F)cc2)c2ccccn2)CCN(CCOc2ccccc2C(F)(F)F)CC1 (single isomer, unassigned) [Compound 101a, 1-(4-fluorophenyl)-N-((4-methyl-1-(2-(2-(trifluoromethyl)phenoxy)ethyl)piperidin-4-yl)methyl)-1-(pyridin-2-yl)methanamine] | – | –

Reference: patent publication US10752588B2 (The Broad Institute, Inc., priority 2014, dated 2020)
